In patent publication US11891387B2, “Monoacylglycerol lipase modulators” (Janssen Pharmaceutica NV, priority 2020, dated 2024):

Each compound was assayed against human MGL from HeLa cells (Homo sapiens (Human), UniProt Q99685) (assay: MGL in vitro activity assay: cleavage of [glycerol-1,3-3H]-oleyl glycerol, activated carbon filtration). Conditions: 300 nM [Glycerol-1,3-3H]-oleyl glycerol, endogenously expressed MGL from HeLa cells, one hour incubation.
Assay type: biochemical
Method in brief: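 Endogenous human MGL from HeLa cells or homogenates was incubated with compound and 300 nM [glycerol-1,3-3H]-oleyl glycerol for one hour. Released [3H]-glycerol passing an activated carbon filter was counted as the measure of activity. Screening used 10 μM compound, with IC50 top concentration set empirically.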

Chain of human MGL from HeLa cells (Q99685 whole entry): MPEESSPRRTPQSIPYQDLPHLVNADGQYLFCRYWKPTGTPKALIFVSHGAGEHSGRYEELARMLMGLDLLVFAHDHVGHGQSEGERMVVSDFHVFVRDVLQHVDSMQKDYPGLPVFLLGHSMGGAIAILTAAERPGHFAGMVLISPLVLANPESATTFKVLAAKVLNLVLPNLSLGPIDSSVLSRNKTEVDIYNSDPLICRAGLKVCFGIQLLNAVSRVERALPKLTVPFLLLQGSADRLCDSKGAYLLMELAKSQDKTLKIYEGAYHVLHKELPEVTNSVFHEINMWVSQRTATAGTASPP

Which IC50 does the source give for `Cn1nc(C(F)(F)F)cc1-c1c2c(nn1C)[C@@H]1CCC[C@H](C2)N1C(=O)c1nn(C)c2ccc(F)cc12` [Example 86, (5-Fluoro-1-methyl-1H-indazol-3-yl)((5R,9S)-2-methyl-3-(1-methyl-3-(trifluoromethyl)-1H-pyrazol-5-yl)-4,5,6,7,8,9-hexahydro-2H-5,9-epiminocycloocta[c]pyrazol-10-yl)methanone] here?
The IC50 was 18 nM.

For `Cn1nc(-c2c3c(nn2C)[C@@H]2CCC[C@H](C3)N2C(=O)c2ccc3ncccc3c2)cc1C(F)(F)F` [Example 87, ((5R,9S)-2-Methyl-3-(1-methyl-5-(trifluoromethyl)-1H-pyrazol-3-yl)-4,5,6,7,8,9-hexahydro-2H-5,9-epiminocycloocta[c]pyrazol-10-yl)(quinolin-6-yl)methanone], which IC50 is on record?
Its IC50 is 17 nM.

How did the IC50 turn out when `Cc1cc(C(=O)N2[C@@H]3CCC[C@H]2c2nn(C)c(-c4cc(C(F)(F)F)n(C)n4)c2C3)c2cc(F)ccc2n1` [Example 88, (6-Fluoro-2-methylquinolin-4-yl)((5R,9S)-2-methyl-3-(1-methyl-5-(trifluoromethyl)-1H-pyrazol-3-yl)-4,5,6,7,8,9-hexahydro-2H-5,9-epiminocycloocta[c]pyrazol-10-yl)methanone] was run?
Its IC50 is 6.6 nM.

`COc1cccc(C(=O)N2[C@@H]3CC[C@H]2c2nn(C)c(-c4cc(C(F)(F)F)nn4C)c2C3)c1C` [Example 89, (3-Methoxy-2-methylphenyl)((5R,8S)-2-methyl-3-(1-methyl-3-(trifluoromethyl)-1H-pyrazol-5-yl)-2,4,5,6,7,8-hexahydro-5,8-epiminocyclohepta[c]pyrazol-9-yl)methanone] was tested. Which IC50 did it give?
The IC50 was 66 nM.

`Cc1ccc2c(F)c(C(=O)N3CCc4c(nn(C)c4-c4cc(C(F)(F)F)nn4C)[C@@H]3C)ccc2n1` [Example 90, (S)-(2,7-dimethyl-3-(1-methyl-3-(trifluoromethyl)-1H-pyrazol-5-yl)-2,4,5,7-tetrahydro-6H-pyrazolo[3,4-c]pyridin-6-yl)(5-fluoro-2-methylquinolin-6-yl)methanone] was tested. Which IC50 did it give?
The IC50 was 230 nM.

How did the IC50 turn out when `Cc1ccc2cc(C(=O)N3CCc4c(nn(C)c4-c4cc(C(F)(F)F)nn4C)[C@@H]3C)c(F)cc2n1` [Example 91, (S)-(2,7-Dimethyl-3-(1-methyl-3-(trifluoromethyl)-1H-pyrazol-5-yl)-2,4,5,7-tetrahydro-6H-pyrazolo[3,4-c]pyridin-6-yl)(7-fluoro-2-methylquinolin-6-yl)methanone] was run?
Its IC50 is 210 nM.

How did the IC50 turn out when `Cc1ccc2c(C)c(C(=O)N3CCc4c(nn(C)c4-c4cc(C(F)(F)F)nn4C)[C@@H]3C)ccc2n1` [Example 92, (S)-(2,7-Dimethyl-3-(1-methyl-3-(trifluoromethyl)-1H-pyrazol-5-yl)-2,4,5,7-tetrahydro-6H-pyrazolo[3,4-c]pyridin-6-yl)(2,5-dimethylquinolin-6-yl)methanone] was run?
Its IC50 is 380 nM.

`Cc1ccc2cc(C(=O)N3CCc4c(nn(C)c4-c4cc(C(F)(F)F)nn4C)[C@@H]3C)c(C)cc2n1` [Example 93, (S)-(2,7-Dimethyl-3-(1-methyl-3-(trifluoromethyl)-1H-pyrazol-5-yl)-2,4,5,7-tetrahydro-6H-pyrazolo[3,4-c]pyridin-6-yl)(2,7-dimethylquinolin-6-yl)methanone] was tested. Which IC50 did it give?
Its IC50 is 1210 nM.

How did the IC50 turn out when `Cc1cc(C)c2cc(C(=O)N3CCc4c(nn(C)c4-c4cc(C(F)(F)F)nn4C)[C@@H]3C)ccc2n1` [Example 94, (S)-(2,7-Dimethyl-3-(1-methyl-3-(trifluoromethyl)-1H-pyrazol-5-yl)-2,4,5,7-tetrahydro-6H-pyrazolo[3,4-c]pyridin-6-yl)(2,4-dimethylquinolin-6-yl)methanone] was run?
Its IC50 is 39 nM.

How did the IC50 turn out when `COc1cc(C)nc2ccc(C(=O)N3CCc4c(nn(C)c4-c4cc(C(F)(F)F)nn4C)[C@@H]3C)cc12` [Example 95, (S)-(2,7-Dimethyl-3-(1-methyl-3-(trifluoromethyl)-1H-pyrazol-5-yl)-2,4,5,7-tetrahydro-6H-pyrazolo[3,4-c]pyridin-6-yl)(4-methoxy-2-methylquinolin-6-yl)methanone] was run?
The IC50 was 10000 nM.

Which IC50 does the source give for `Cc1ccc(C(=O)N2CCc3c(nn(C)c3-c3cc(C(F)(F)F)nn3C)[C@@H]2C)c(OC(F)(F)F)c1` [Example 110, (S)-(2,7-Dimethyl-3-(1-methyl-3-(trifluoromethyl)-1H-pyrazol-5-yl)-2,4,5,7-tetrahydro-6H-pyrazolo[3,4-c]pyridin-6-yl)(4-methyl-2-(trifluoromethoxy)phenyl)methanone] here?
The IC50 was 650 nM.

How did the IC50 turn out when `C[C@H]1c2nn(C)c(-c3cc(C(F)(F)F)nn3C)c2CCN1C(=O)c1cccc(OC(F)(F)F)c1F` [Example 112, (S)-(2,7-Dimethyl-3-(1-methyl-3-(trifluoromethyl)-1H-pyrazol-5-yl)-2,4,5,7-tetrahydro-6H-pyrazolo[3,4-c]pyridin-6-yl)(2-fluoro-3-(trifluoromethoxy)phenyl)methanone] was run?
The IC50 was 86 nM.

Which IC50 does the source give for `C[C@H]1c2nn(C)c(-c3cc(C(F)(F)F)nn3C)c2CCN1C(=O)c1ccc(OC(F)(F)F)cc1Cl` [Example 113, (S)-(2-Chloro-4-(trifluoromethoxy)phenyl)(2,7-dimethyl-3-(1-methyl-3-(trifluoromethyl)-1H-pyrazol-5-yl)-2,4,5,7-tetrahydro-6H-pyrazolo[3,4-c]pyridin-6-yl)methanone] here?
Its IC50 is 9900 nM.

How did the IC50 turn out when `C[C@H]1c2nn(C)c(-c3cc(C(F)(F)F)n(C)n3)c2CCN1C(=O)c1cccc2cnn(C)c12` [Example 117, (S)-(2,7-Dimethyl-3-(1-methyl-5-(trifluoromethyl)-1H-pyrazol-3-yl)-2,4,5,7-tetrahydro-6H-pyrazolo[3,4-c]pyridin-6-yl)(1-methyl-1H-indazol-7-yl)methanone] was run?
The IC50 was 160 nM.

How did the IC50 turn out when `C[C@H]1c2nn(C)c(-c3cc(C(F)(F)F)n(C)n3)c2CCN1C(=O)c1ccnc2c1cnn2C` [Example 118, (S)-(2,7-Dimethyl-3-(1-methyl-5-(trifluoromethyl)-1H-pyrazol-3-yl)-2,4,5,7-tetrahydro-6H-pyrazolo[3,4-c]pyridin-6-yl)(1-methyl-1H-pyrazolo[3,4-b]pyridin-4-yl)methanone] was run?
Its IC50 is 47 nM.

`C[C@H]1c2nn(C)c(-c3cc(C(F)(F)F)n(C)n3)c2CCN1C(=O)c1ccc2ncsc2c1` [Example 120, (S)-Benzo[d]thiazol-6-yl(2,7-dimethyl-3-(1-methyl-5-(trifluoromethyl)-1H-pyrazol-3-yl)-2,4,5,7-tetrahydro-6H-pyrazolo[3,4-c]pyridin-6-yl)methanone] was tested. Which IC50 did it give?
Its IC50 is 46 nM.

Which IC50 does the source give for `COc1nccc(C(=O)N2CCc3c(nn(C)c3-c3cc(C(F)(F)F)n(C)n3)[C@@H]2C)c1C` [Example 121, (S)-(2,7-Dimethyl-3-(1-methyl-5-(trifluoromethyl)-1H-pyrazol-3-yl)-2,4,5,7-tetrahydro-6H-pyrazolo[3,4-c]pyridin-6-yl)(2-methoxy-3-methylpyridin-4-yl)methanone] here?
The IC50 was 83 nM.

For `C[C@H]1c2nn(C)c(-c3cc(C(F)(F)F)nn3C)c2CCN1C(=O)c1cc2scnc2cn1` [Example 122, (S)-(2,7-Dimethyl-3-(1-methyl-3-(trifluoromethyl)-1H-pyrazol-5-yl)-2,4,5,7-tetrahydro-6H-pyrazolo[3,4-c]pyridin-6-yl)(thiazolo[4,5-c]pyridin-6-yl)methanone], which IC50 is on record?
Its IC50 is 260 nM.

For `C[C@H]1c2nn(C)c(-c3cc(C(F)(F)F)nn3C)c2CCN1C(=O)c1cnc2ncsc2c1` [Example 123, (S)-(2,7-Dimethyl-3-(1-methyl-3-(trifluoromethyl)-1H-pyrazol-5-yl)-2,4,5,7-tetrahydro-6H-pyrazolo[3,4-c]pyridin-6-yl)(thiazolo[4,5-b]pyridin-6-yl)methanone], which IC50 is on record?
The IC50 was 950 nM.

With `Cc1cc(C(=O)N2CCc3c(nn(C)c3-c3cc(C(F)(F)F)n(C)n3)[C@@H]2C)c2cc(F)ccc2n1` [Example 132, (S)-(2,7-Dimethyl-3-(1-methyl-5-(trifluoromethyl)-1H-pyrazol-3-yl)-2,4,5,7-tetrahydro-6H-pyrazolo[3,4-c]pyridin-6-yl)(6-fluoro-2-methylquinolin-4-yl)methanone] as the compound, how does the IC50 read?
The IC50 was 27 nM.

For `Cc1c(C(=O)N2CCc3c(nn(C)c3-c3cc(C(F)(F)F)nn3C)[C@@H]2C)ccc2ncsc12` [Example 133, (S)-(2,7-Dimethyl-3-(1-methyl-3-(trifluoromethyl)-1H-pyrazol-5-yl)-2,4,5,7-tetrahydro-6H-pyrazolo[3,4-c]pyridin-6-yl)(7-methylbenzo[d]thiazol-6-yl)methanone], which IC50 is on record?
The IC50 was 24 nM.

`Cc1cc2ncsc2cc1C(=O)N1CCc2c(nn(C)c2-c2cc(C(F)(F)F)nn2C)[C@@H]1C` [Example 134, (S)-(2,7-Dimethyl-3-(1-methyl-3-(trifluoromethyl)-1H-pyrazol-5-yl)-2,4,5,7-tetrahydro-6H-pyrazolo[3,4-c]pyridin-6-yl)(5-methylbenzo[d]thiazol-6-yl)methanone] was tested. Which IC50 did it give?
The IC50 was 87 nM.

With `Cc1cc(C(=O)N2CCc3c(nn(C)c3-c3cc(C(F)(F)F)nn3C)[C@@H]2C)cc2scnc12` [Example 135, (S)-(2,7-Dimethyl-3-(1-methyl-3-(trifluoromethyl)-1H-pyrazol-5-yl)-2,4,5,7-tetrahydro-6H-pyrazolo[3,4-c]pyridin-6-yl)(4-methylbenzo[d]thiazol-6-yl)methanone] as the compound, how does the IC50 read?
The IC50 was 22 nM.
